Where two headings read alike, the source gives them in different places.
Key:
[1] = test system: Key Broadleaf Weed and Crop Species; experiment: Post-emergent Test II herbicidal activity (Table 5); type: in vivo; conditions: post-emergence, 336 h, 14 days after application; for pest or weed control at 70 g/ha: application rate 70 g ai/ha; for pest or weed control at 140 g/ha: application rate 140 g ai/ha
Method in brief: (§1)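 Greenhouse post-emergent assay: seedlings (first/second true leaf) in Metro-Mix 360 were sprayed at 187 L/ha at a top rate plus twofold dilutions down to 1/16×; solvent-blank controls were included. Percent visual injury was read at 14 d.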

[2] = test system: Key Grass and Sedge Weeds as well as Grass Crops; experiment: Post-emergent Test II herbicidal activity (Table 6); type: in vivo; conditions: post-emergence, 336 h; for pest or weed control at 70 g/ha: 70 g ai/ha; for pest or weed control at 140 g/ha: 140 g ai/ha
Method in brief: as §1

[3] = ABUTH: velvetleaf (Abutilon theophrasti), read-out: Visual Growth Reduction (%) 14 Days After Application, ABUTH
[4] = AMARE: redroot pigweed (Amaranthus retroflexus), read-out: Visual Growth Reduction (%) 14 Days After Application, AMARE
[5] = BRSNN: oilseed-rape, canola (Brassica napus), read-out: Visual Growth Reduction (%) 14 Days After Application, BRSNN
[6] = CHEAL: lambsquarters (Chenopodium album), read-out: Visual Growth Reduction (%) 14 Days After Application, CHEAL
[7] = EPHHL: wild poinsettia (Euphorbia heterophylla), read-out: Visual Growth Reduction (%) 14 Days After Application, EPHHL
[8] = HELAN: sunflower (Helianthus annuus), read-out: Visual Growth Reduction (%) 14 Days After Application, HELAN
[9] = VIOTR: wild pansy (Viola tricolor), read-out: Visual Growth Reduction (%) 14 Days After Application, VIOTR
[10] = CYPES: yellow nutsedge (Cyperus esculentus), read-out: Visual Growth Reduction (%) 14 Days After Application, CYPES
[11] = DIGSA: crabgrass (Digitaria sanguinalis), read-out: Visual Growth Reduction (%) 14 Days After Application, DIGSA
[12] = ECHCG: barnyardgrass (Echinochloa crus-galli), read-out: Visual Growth Reduction (%) 14 Days After Application, ECHCG
[13] = ORYSA: rice (Oryza sativa), crop, read-out: Visual Growth Reduction (%) 14 Days After Application, ORYSA
[14] = SETFA: giant foxtail (Setaria faberi), read-out: Visual Growth Reduction (%) 14 Days After Application, SETFA
[15] = SORVU: grain sorghum (Sorghum vulgare), read-out: Visual Growth Reduction (%) 14 Days After Application, SORVU
[16] = TRZSS (wheat, Triticum aestivum), crop, read-out: Visual Growth Reduction (%) 14 Days After Application, TRZSS
[17] = ZEAMX: maize, corn (Zea mays), crop, read-out: Visual Growth Reduction (%) 14 Days After Application, ZEAMX

| SMILES | pest or weed control at 70 g/ha [1, 3] [%] | pest or weed control at 140 g/ha [1, 3] [%] | pest or weed control at 70 g/ha [1, 4] [%] | pest or weed control at 140 g/ha [1, 4] [%] | pest or weed control at 70 g/ha [1, 5] [%] | pest or weed control at 140 g/ha [1, 5] [%] | pest or weed control at 70 g/ha [1, 6] [%] | pest or weed control at 140 g/ha [1, 6] [%] | pest or weed control at 70 g/ha [1, 7] [%] | pest or weed control at 140 g/ha [1, 7] [%] | pest or weed control at 70 g/ha [1, 8] [%] | pest or weed control at 140 g/ha [1, 8] [%] | pest or weed control at 70 g/ha [1, 9] [%] | pest or weed control at 140 g/ha [1, 9] [%] | pest or weed control at 70 g/ha [2, 10] [%] | pest or weed control at 140 g/ha [2, 10] [%] | pest or weed control at 70 g/ha [2, 11] [%] | pest or weed control at 140 g/ha [2, 11] [%] | pest or weed control at 70 g/ha [2, 12] [%] | pest or weed control at 140 g/ha [2, 12] [%] | also measured |
| --- | --- | --- | --- | --- | --- | --- | --- | --- | --- | --- | --- | --- | --- | --- | --- | --- | --- | --- | --- | --- | --- |
| Nc1c(F)c(-c2ccc(OC(F)F)cc2)nc(C(=O)O)c1Cl [Compound 143] | 85 to 94 | 85 to 94 | 60 to 74 | 85 to 94 | 60 to 74 | 85 to 94 | 85 to 94 | 85 to 94 | 95 to 100 | 95 to 100 | 60 to 74 | 85 to 94 | 30 to 44 | 30 to 44 | 85 to 94 | 85 to 94 | 75 to 84 | 75 to 84 | 95 to 100 | 95 to 100 | pest or weed control at 70 g/ha [2, 13]: 0 to 29%; pest or weed control at 140 g/ha [2, 13]: 30 to 44%; pest or weed control at 70 g/ha [2, 14]: 75 to 84%; pest or weed control at 140 g/ha [2, 14]: 75 to 84%; pest or weed control at 70 g/ha [2, 15]: 85 to 94%; pest or weed control at 140 g/ha [2, 15]: 85 to 94%; pest or weed control at 70 g/ha [2, 16]: 45 to 59%; pest or weed control at 140 g/ha [2, 16]: 60 to 74%; pest or weed control at 70 g/ha [2, 17]: 85 to 94%; pest or weed control at 140 g/ha [2, 17]: 85 to 94% |
| COC(=O)c1nc(-c2ccccc2F)c(F)c(N)c1Cl [Compound 206] | 95 to 100 | 95 to 100 | 95 to 100 | 95 to 100 | 75 to 84 | 85 to 94 | 85 to 94 | 85 to 94 | 95 to 100 | 95 to 100 | 60 to 74 | 85 to 94 | 45 to 59 | 60 to 74 | 0 to 29 | 0 to 29 | 0 to 29 | 0 to 29 | 0 to 29 | 0 to 29 | pest or weed control at 70 g/ha [2, 13]: 0 to 29%; pest or weed control at 140 g/ha [2, 13]: 0 to 29%; pest or weed control at 70 g/ha [2, 14]: 0 to 29%; pest or weed control at 140 g/ha [2, 14]: 0 to 29%; pest or weed control at 70 g/ha [2, 15]: 0 to 29%; pest or weed control at 140 g/ha [2, 15]: 0 to 29%; pest or weed control at 70 g/ha [2, 16]: 0 to 29%; pest or weed control at 140 g/ha [2, 16]: 0 to 29%; pest or weed control at 70 g/ha [2, 17]: 0 to 29%; pest or weed control at 140 g/ha [2, 17]: 0 to 29% |
| Nc1c(F)c(-c2ccc(Br)cc2)nc(C(=O)O)c1Cl [Compound 20] | 95 to 100 | 95 to 100 | 95 to 100 | 95 to 100 | 95 to 100 | 95 to 100 | 95 to 100 | 95 to 100 | 95 to 100 | 95 to 100 | 95 to 100 | 95 to 100 | 95 to 100 | 95 to 100 | 95 to 100 | 95 to 100 | 95 to 100 | 95 to 100 | 95 to 100 | 95 to 100 | pest or weed control at 70 g/ha [2, 13]: 60 to 74%; pest or weed control at 140 g/ha [2, 13]: 60 to 74%; pest or weed control at 70 g/ha [2, 14]: 95 to 100%; pest or weed control at 140 g/ha [2, 14]: 95 to 100%; pest or weed control at 70 g/ha [2, 15]: 95 to 100%; pest or weed control at 140 g/ha [2, 15]: 95 to 100%; pest or weed control at 70 g/ha [2, 16]: 75 to 84%; pest or weed control at 140 g/ha [2, 16]: 75 to 84%; pest or weed control at 70 g/ha [2, 17]: 95 to 100%; pest or weed control at 140 g/ha [2, 17]: 95 to 100% |
